A word on the IC50: it is the midpoint of a concentration-inhibition curve. A low value points to greater potency in that assay.

Sequence of human P2X3 receptor (P56373 whole entry): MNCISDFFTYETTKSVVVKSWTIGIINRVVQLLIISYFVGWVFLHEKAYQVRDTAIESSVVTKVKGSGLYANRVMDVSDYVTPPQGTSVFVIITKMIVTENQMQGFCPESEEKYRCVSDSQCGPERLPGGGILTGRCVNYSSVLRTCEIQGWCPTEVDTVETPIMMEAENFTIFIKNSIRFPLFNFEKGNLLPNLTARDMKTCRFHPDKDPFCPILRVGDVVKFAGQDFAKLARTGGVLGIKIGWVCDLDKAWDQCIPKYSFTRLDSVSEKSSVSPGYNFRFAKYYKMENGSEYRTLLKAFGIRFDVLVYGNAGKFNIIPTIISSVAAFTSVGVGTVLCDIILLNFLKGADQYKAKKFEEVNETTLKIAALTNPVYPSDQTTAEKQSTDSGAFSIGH

The target of the experiment is human P2X3 receptor (Homo sapiens (Human), UniProt P56373). Put plainly: Evaluation of human P2X3 receptor inhibitory activity (Test Example 1). The class given is cell-based. The note with it: C6BU-1 cell transfected with human P2X3 receptor gene, FLIPR 384. The essentials:
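FLIPR calcium read-out: signal taken as peak fluorescence after ATP addition divided by starting fluorescence, and IC50 calculated from it. Compound added 5 min before 150 nM ATP solution (pre-dispense stock) to Fluo-3-AM-loaded C6BU-1 cells stably transfected with human P2X3; HEPES buffer pH 7.5 with probenecid.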
In turn, `C[C@@H](Cn1c(=O)[nH]/c(=N\c2ccc(Oc3nc(C(F)(F)F)ns3)cc2)n(Cc2ccc(Cl)cc2)c1=O)C(=O)O` [Compound R-145] came in with an IC50 of 11 nM.

`C[C@@H](Cn1c(=O)[nH]/c(=N\c2ccc(N3CCCCC3)c(F)c2)n(Cc2ccc(Cl)cc2)c1=O)C(=O)O` [Compound R-146] showed an IC50 of 33 nM. Against the preceding compound, the IC50 is about 3-fold higher. For `CC(C)(Cn1c(=O)[nH]/c(=N\c2ccc(N3CCCCC3)c(F)c2)n(Cc2ccc(Cl)cc2)c1=O)C(=O)O` [Compound R-147], the IC50 amounted to 51 nM.

`COC(=O)C(C)(C)Cn1c(=O)[nH]/c(=N\c2ccc(Oc3cccnn3)cc2)n(Cc2ccc(Cl)cc2)c1=O` [Compound R-148] registered an IC50 of 5 nM. `COC(=O)C(C)(C)Cn1c(=O)[nH]/c(=N\c2ccc(Oc3ncc(C)s3)cc2)n(Cc2ccc(Cl)cc2)c1=O` [Compound R-149] registered an IC50 of 12 nM. This IC50 is about 2.4-fold higher than that of the compound before. Consider `COC(=O)[C@H](C)[C@H](C)n1c(=O)[nH]/c(=N\c2ccc(Oc3ccnc(Cl)c3)cc2)n(Cc2ccc(Cl)cc2)c1=O` [Compound R-150], for which it took 18 nM to reach half-maximal inhibition (IC50). Compared with the last compound, the IC50 is about 1.5-fold higher. With `CC(C)(Cn1c(=O)[nH]/c(=N\c2ccc(Oc3cccnn3)cc2)n(Cc2ccc(Cl)cc2)c1=O)C(=O)O` [Compound R-151] the figure was 11 nM. With `COC(=O)[C@@H](C)Cn1c(=O)[nH]/c(=N\c2ccc(Oc3ccc(CO)nc3)cc2)n(Cc2ccc(Cl)cc2)c1=O` [Compound R-152] the figure was 5 nM; with `Cc1cnc(Oc2ccc(/N=c3\[nH]c(=O)n(CC(C)(C)C(=O)O)c(=O)n3Cc3ccc(Cl)cc3)cc2)s1` [Compound R-153], 8 nM; with `C[C@@H](Cn1c(=O)[nH]/c(=N\c2ccc(Oc3ccc(CO)nc3)cc2)n(Cc2ccc(Cl)cc2)c1=O)C(=O)O` [Compound R-155], 10 nM. For `COC(=O)[C@H](C)[C@H](C)n1c(=O)[nH]/c(=N\c2ccc(Oc3cc(F)nc(F)c3)cc2)n(Cc2ccc(Cl)cc2)c1=O` [Compound R-156] the value was 35 nM; for `C[C@@H](C(=O)O)[C@H](C)n1c(=O)[nH]/c(=N\c2ccc(Oc3cc(F)nc(F)c3)cc2)n(Cc2ccc(Cl)cc2)c1=O` [Compound R-157], 6 nM; for `COC(=O)[C@H](C)[C@H](C)n1c(=O)[nH]/c(=N\c2ccc(Oc3cnccn3)c(C)c2)n(Cc2ccc(Cl)cc2)c1=O` [Compound R-158], 12 nM. Turning to `COC(=O)[C@H](C)[C@H](C)n1c(=O)[nH]/c(=N\c2ccc(Oc3cnc(Cl)cn3)cc2)n(Cc2ccc(Cl)cc2)c1=O` [Compound R-159], 18 nM corresponded to half-maximal inhibition (IC50).

For `Cc1nsc(Oc2ccc(/N=c3\[nH]c(=O)n(C[C@H](C)C(=O)O)c(=O)n3Cc3ccc(Cl)cc3)cc2)n1` [Compound R-160], the midpoint of inhibition, the IC50, lay at 8 nM. For `Cc1cc(/N=c2\[nH]c(=O)n([C@@H](C)[C@@H](C)C(=O)O)c(=O)n2Cc2ccc(Cl)cc2)ccc1Oc1cnccn1` [Compound R-161] the value was 10 nM. In the case of `C[C@@H](C(=O)O)[C@H](C)n1c(=O)[nH]/c(=N\c2ccc(Oc3cnc(Cl)cn3)cc2)n(Cc2ccc(Cl)cc2)c1=O` [Compound R-162], inhibition was half-maximal at 6 nM (IC50). This IC50 is about 1.7-fold lower than that of the compound before.

Consider `CC(C)(Cn1c(=O)[nH]/c(=N\c2ccc(Oc3ncns3)cc2)n(Cc2ccc(Cl)cc2)c1=O)C(=O)O` [Compound R-163], for which the IC50 was found to be 14 nM. This IC50 is about 2.3-fold higher than that of the compound before. In turn, `C[C@@H](Cn1c(=O)[nH]/c(=N\c2ccc(Oc3ncccn3)c(F)c2)n(Cc2ccc(Cl)cc2)c1=O)C(=O)O` [Compound R-164] had an IC50 of 10 nM. For `CC(C)(Cn1c(=O)[nH]/c(=N\c2ccc(Oc3ncccn3)c(F)c2)n(Cc2ccc(Cl)cc2)c1=O)C(=O)O` [Compound R-165] the value was 14 nM. For `CCn1c(=O)[nH]/c(=N\c2ccc(Oc3ccc(Cl)nc3C#N)cc2)n(Cc2ccc(Cl)cc2)c1=O` [Compound R-166] the value was 48 nM.

With `COC(=O)[C@H](C)[C@H](C)n1c(=O)[nH]/c(=N\c2ccc(Oc3cnccn3)cc2)n(Cc2ccc(Cl)cc2)c1=O` [Compound R-167], the IC50 amounted to 11 nM. On to `C[C@@H](C(=O)O)[C@H](C)n1c(=O)[nH]/c(=N\c2ccc(Oc3cnccn3)cc2)n(Cc2ccc(Cl)cc2)c1=O` [Compound R-168], for which the midpoint of inhibition, the IC50, lay at 17 nM. This IC50 is about 1.5-fold higher than that of the compound before. On to `CCn1c(=O)[nH]/c(=N\c2ccc(Oc3ccc(Cl)nc3C(=O)O)cc2)n(Cc2ccc(Cl)cc2)c1=O` [Compound R-169], for which the IC50 was 304 nM.

`O=c1[nH]c(=O)n(Cc2ccc(Cl)cc2)/c(=N/c2ccc(Oc3ccc(F)cn3)cc2)[nH]1` [Compound R-170] registered an IC50 of 193 nM. For `CCOC(=O)C[C@H](O)Cn1c(=O)[nH]/c(=N\c2ccc(OC(C)C)c(Cl)c2)n(Cc2ccc(Cl)cc2)c1=O` [Compound R-171] the value was 33 nM; for `CCOC(=O)C[C@H](O)Cn1c(=O)[nH]/c(=N\c2ccc3oc(CC)c(C)c3c2)n(Cc2ccc(Cl)cc2)c1=O` [Compound R-172], 33 nM; for `CCc1oc2ccc(/N=c3\[nH]c(=O)[nH]c(=O)n3Cc3ccc(Cl)cc3)cc2c1C` [Compound R-173], 376 nM. For the compound `COC(=O)[C@@H](C)Cn1c(=O)[nH]/c(=N\c2ccc(Oc3ccc(C)nn3)c(F)c2)n(Cc2ccc(Cl)cc2)c1=O` [Compound R-174], the IC50 stood at 10 nM. In the case of `COC(=O)C(C)(C)Cn1c(=O)[nH]/c(=N\c2ccc(Oc3ccc(C)nn3)c(F)c2)n(Cc2ccc(Cl)cc2)c1=O` [Compound R-175], the IC50 turned out to be 19 nM. For `CC(C)(Cn1c(=O)[nH]/c(=N\c2ccc(Oc3cnc(C(F)(F)F)cn3)cc2)n(Cc2ccc(Cl)cc2)c1=O)C(=O)O` [Compound R-176] the value was 7 nM.

`COc1cc(Oc2ccc(/N=c3\[nH]c(=O)n([C@@H](C)[C@@H](C)C(=O)O)c(=O)n3Cc3ccc(Cl)cc3)cc2)cc(F)n1` [Compound R-177]: the IC50 came out at 5 nM. In turn, `CCc1oc2ccc(/N=c3\[nH]c(=O)n(C[C@@H](O)CC(=O)O)c(=O)n3Cc3ccc(Cl)cc3)cc2c1C` [Compound R-178] gave an IC50 of 45 nM. With `CC(C)Oc1ccc(/N=c2\[nH]c(=O)n(C[C@@H](O)CC(=O)O)c(=O)n2Cc2ccc(Cl)cc2)cc1Cl` [Compound R-179] the figure was 56 nM; with `Cc1ccc(Oc2ccc(/N=c3\[nH]c(=O)n(C[C@H](C)C(=O)O)c(=O)n3Cc3ccc(Cl)cc3)cc2F)nn1` [Compound R-180], 7 nM; with `Cc1ccc(Oc2ccc(/N=c3\[nH]c(=O)n(CC(C)(C)C(=O)O)c(=O)n3Cc3ccc(Cl)cc3)cc2F)nn1` [Compound R-181], 7 nM. Regarding `COC(=O)[C@H](C)[C@H](C)n1c(=O)[nH]/c(=N\c2ccc(Oc3ncc(C)s3)cc2)n(Cc2ccc(Cl)cc2)c1=O` [Compound R-182], 26 nM corresponded to half-maximal inhibition (IC50). With `Cc1cnc(Oc2ccc(/N=c3\[nH]c(=O)n([C@@H](C)[C@@H](C)C(=O)O)c(=O)n3Cc3ccc(Cl)cc3)cc2)s1` [Compound R-183] the figure was 7 nM; with `COC(=O)[C@@H](C)Cn1c(=O)[nH]/c(=N\c2ccc(Oc3cncc(C)c3)cc2)n(Cc2ccc(Cl)cc2)c1=O` [Compound R-184], 10 nM; with `Cc1cncc(Oc2ccc(/N=c3\[nH]c(=O)n(C[C@H](C)C(=O)O)c(=O)n3Cc3ccc(Cl)cc3)cc2)c1` [Compound R-185], 12 nM. As for `COC(=O)[C@H](C)[C@H](C)n1c(=O)[nH]/c(=N\c2ccc(Oc3cncc(F)c3)c(C)c2)n(Cc2ccc(Cl)cc2)c1=O` [Compound R-186], the IC50 was 26 nM.
